The text below walks through data of patent US8313740B2 (priority 2006, dated 2012).

This assay concerns MC38-HER-2 cells. The following applies: mouse, in vivo.

In the case of `CC(=O)O[C@@]12CO[C@@H]1C[C@H](O)[C@@]1(C)C(=O)[C@H](O)C3=C(C)[C@@H](OC(=O)[C@H](O)[C@@H](NC(=O)OC(C)(C)C)c4ccccc4)C[C@@](O)([C@@H](OC(=O)c4ccccc4)[C@H]21)C3(C)C` [Docetaxel, docetaxel], the “tumor growth, subset A” value was “modest and transient delay of tumor growth”; the “tumor growth, subset B” value was “had no effect on tumor growth”; the “tumor growth, subset C” value was “had no effect on tumor growth”.
